Laboratory results: ChEMBL document CHEMBL1144790, “Prodrugs of phosphates and phosphonates” (J Med Chem, 2008)

Tests used:
[1] = Stability in human gastric juice assessed as half life of hydrolysis; format: ADME, tissue-based
[2] = Stability in human serum assessed as half life of hydrolysis; format: ADME, cell-free
[3] = Chemical stability assessed as half life of hydrolysis in carbonate buffer at pH 8.5; format: physicochemical
[4] = Chemical stability assessed as half life of hydrolysis in phosphate buffer at pH 8.5; format: physicochemical
Liver = experiment: Metabolic stability in rat liver S9 fraction assessed as esterase conversion rate; format: ADME, subcellular
[5] = Aqueous stability assessed as time to reach 90% of starting dose at pH 3.0 to 7.4; format: physicochemical; conditions: buffer
[6] = Aqueous stability assessed as time to reach 90% of starting dose at pH 7; format: physicochemical; conditions: buffer
[7] = Oral bioavailability in rat; format: ADME, organism-based; conditions: in vivo
[8] = Aqueous stability assessed as time to reach 90% of starting dose at pH 7; conditions: buffer
Trypanosoma brucei = experiment: Antiparasitic activity against Trypanosoma brucei; format: functional, organism-based
[9] = Chemical stability assessed as half life of hydrolysis at acidic pH; format: physicochemical
[10] = Chemical stability assessed as half life of hydrolysis at neutral pH; format: physicochemical

CC(C)(C)C(=O)SCCOP(=O)(COCCn1cnc2c(N)ncnc21)OCCSC(=O)C(C)(C)C
half-life [1]: < 5 min | half-life [2]: 4 h

O=C(O)CCNC(=O)[C@H](Cc1ccc(-c2ccccc2)cc1)NCP(=O)(Oc1ccccc1)Oc1ccccc1
half-life [3]: 0.5 h | half-life [4]: > 96 h

CC(=O)Oc1ccc(COP(=O)(OCc2ccc(OC(C)=O)cc2)c2ccc(-c3nc(N)sc3CC(C)C)o2)cc1
Stability (Liver): > 300 nmol/min/mg | Stability [5]: < 4 h

CCOC(=O)[C@H](C)NP(=O)(N[C@@H](C)C(=O)OCC)c1ccc(-c2nc(N)sc2CC(C)C)o1
Stability [6]: > 7 days | bioavailability [7]: 22% | Stability (Liver): 11 nmol/min/mg | Stability [5]: > 48 h

CCOC(=O)[C@H](C)NP(=O)(Oc1ccccc1)c1ccc(-c2nc(N)sc2CC(C)C)o1 (stereo partly specified)
Stability (Liver): 55 nmol/min/mg | Stability [8]: 14 h

CC(=O)SCCOP(=O)(OCCSC(C)=O)c1ccc(-c2nc(N)sc2CC(C)C)o1
Stability (Liver): > 300 nmol/min/mg | Stability [8]: 8 h

CCOC(=O)CNP(=O)(NCC(=O)OCC)c1ccc(-c2nc(N)sc2CC(C)C)o1
Stability (Liver): 43 nmol/min/mg | Stability [8]: 36 h

CC(C)Cc1sc(N)nc1-c1ccc(P(=O)(OCOC(=O)C(C)(C)C)OCOC(=O)C(C)(C)C)o1
Stability (Liver): > 300 nmol/min/mg | Stability [8]: < 4 h

CC(C)(C)C(=O)SCCOP(=O)(OCCSC(=O)C(C)(C)C)Oc1ccc(O)c(C(=O)O)c1
IC50 (Trypanosoma brucei): 20 µM

CC(C)(C)C(=O)OCOP(=O)(OCOC(=O)C(C)(C)C)OC[C@H]1O[C@@H](n2cc(F)c(=O)[nH]c2=O)C[C@@H]1O
half-life [9]: > 40 h | half-life [10]: > 40 h
